Legend:
Experiment in all cases: relative viability (nuclei count vs DMSO), 5 days (fraction); higher = more cells survive
[1] = compound: C1CSC2=C(C(=O)N1)SC3=C2C=C(C=C3)O [kb NB 142-70] + NC(=O)Nc1cc(-c2cccc(F)c2)sc1C(=O)N[C@H]1CCCNC1 [AZD7762] (partner 0.2 µM)
Outline: (§1)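 Lung cancer cell lines in 1536-well plates got either a single drug or a fixed anchor-drug dose together with five library-drug doses (not always all listed) in √10 steps, by pin tool, on the day after seeding. Nuclei were counted after 5 days, and relative viability is the treated-to-vehicle ratio of nuclei counts. Values are medians of duplicate plates.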

[2] = compound: C1CSC2=C(C(=O)N1)SC3=C2C=C(C=C3)O [kb NB 142-70] + CS(=O)(=O)N1CCN(Cc2cc3nc(-c4cccc5[nH]ncc45)nc(N4CCOCC4)c3s2)CC1 [Pictilisib] (partner 1 µM)
Outline: as §1

[3] = compound: NCC(=O)Nc1ccc(-n2nc(C(F)(F)F)cc2-c2ccc3c(ccc4ccccc43)c2)cc1 + CCNC(=O)c1noc(-c2cc(C(C)C)c(O)cc2O)c1-c1ccc(CN2CCOCC2)cc1 [Luminespib] (partner 0.01 µM)
Outline: as §1

[4] = compound: C1CSC2=C(C(=O)N1)SC3=C2C=C(C=C3)O [kb NB 142-70] + CC1(C)CCC(c2ccc(Cl)cc2)=C(CN2CCN(c3ccc(C(=O)NS(=O)(=O)c4ccc(N[C@H](CCN5CCOCC5)CSc5ccccc5)c(S(=O)(=O)C(F)(F)F)c4)cc3)CC2)C1 [Navitoclax] (partner 0.5 µM)
Outline: as §1

[5] = compound: C1CSC2=C(C(=O)N1)SC3=C2C=C(C=C3)O [kb NB 142-70] + CS(=O)(=O)CCNCc1ccc(-c2ccc3ncnc(Nc4ccc(OCc5cccc(F)c5)c(Cl)c4)c3c2)o1 [Lapatinib] (partner 2 µM)
Outline: as §1

Cell Line: NCI-H2405
- relative viability ([1]; first compound 0.1 µM): 0.792
- relative viability ([1]; first compound 1 µM): 0.769
- relative viability ([1]; first compound 3.162 µM): 0.609
- relative viability ([2]; first compound 0.1 µM): 0.378
- relative viability ([2]; first compound 1 µM): 0.379
- relative viability ([2]; first compound 3.162 µM): 0.382
- relative viability ([3]; first compound 0.02 µM): 0.686
- relative viability ([3]; first compound 0.06325 µM): 0.74
- relative viability ([3]; first compound 0.2 µM): 0.606
- relative viability ([3]; first compound 0.6325 µM): 0.732
- relative viability ([3]; first compound 2 µM): 0.746
- relative viability ([4]; first compound 0.1 µM): 0.966
- relative viability ([4]; first compound 1 µM): 0.863
- relative viability ([4]; first compound 3.162 µM): 0.679
- relative viability ([5]; first compound 0.1 µM): 1.11
- relative viability ([5]; first compound 1 µM): 1.07
- relative viability ([5]; first compound 3.162 µM): 0.896

Cell Line: LCLC-97TM1
- relative viability ([1]; first compound 0.1 µM): 0.346
- relative viability ([1]; first compound 1 µM): 0.231
- relative viability ([1]; first compound 3.162 µM): 0.563
- relative viability ([2]; first compound 0.1 µM): 0.216
- relative viability ([2]; first compound 1 µM): 0.232
- relative viability ([2]; first compound 3.162 µM): 0.236
- relative viability ([3]; first compound 0.02 µM): 0.869
- relative viability ([3]; first compound 0.06325 µM): 0.76
- relative viability ([3]; first compound 0.2 µM): 0.689
- relative viability ([3]; first compound 0.6325 µM): 0.8
- relative viability ([3]; first compound 2 µM): 0.831
- relative viability ([4]; first compound 0.1 µM): 0.457
- relative viability ([4]; first compound 1 µM): 0.29
- relative viability ([4]; first compound 3.162 µM): 0.307
- relative viability ([5]; first compound 0.1 µM): 0.992
- relative viability ([5]; first compound 1 µM): 0.685
- relative viability ([5]; first compound 3.162 µM): 1.08

Cell Line: NCI-H596
- relative viability ([1]; first compound 0.1 µM): 1.13
- relative viability ([1]; first compound 1 µM): 1.09
- relative viability ([1]; first compound 3.162 µM): 1.09
- relative viability ([2]; first compound 0.1 µM): 0.399
- relative viability ([2]; first compound 1 µM): 0.351
- relative viability ([2]; first compound 3.162 µM): 0.352
- relative viability ([3]; first compound 0.02 µM): 1.14
- relative viability ([3]; first compound 0.06325 µM): 1.02
- relative viability ([3]; first compound 0.2 µM): 1.06
- relative viability ([3]; first compound 0.6325 µM): 0.99
- relative viability ([3]; first compound 2 µM): 0.978
- relative viability ([4]; first compound 0.1 µM): 1
- relative viability ([4]; first compound 1 µM): 0.982
- relative viability ([4]; first compound 3.162 µM): 0.866
- relative viability ([5]; first compound 0.1 µM): 1.02
- relative viability ([5]; first compound 1 µM): 0.931
- relative viability ([5]; first compound 3.162 µM): 0.884

Cell Line: NCI-H727
- relative viability ([1]; first compound 0.1 µM): 0.531
- relative viability ([1]; first compound 1 µM): 0.688
- relative viability ([1]; first compound 3.162 µM): 0.769
- relative viability ([2]; first compound 0.1 µM): 0.425
- relative viability ([2]; first compound 1 µM): 0.469
- relative viability ([2]; first compound 3.162 µM): 0.346
- relative viability ([3]; first compound 0.02 µM): 0.325
- relative viability ([3]; first compound 0.06325 µM): 0.352
- relative viability ([3]; first compound 0.2 µM): 0.322
- relative viability ([3]; first compound 0.6325 µM): 0.32
- relative viability ([3]; first compound 2 µM): 0.401
- relative viability ([4]; first compound 0.1 µM): 0.522
- relative viability ([4]; first compound 1 µM): 0.397
- relative viability ([4]; first compound 3.162 µM): 0.263
- relative viability ([5]; first compound 0.1 µM): 0.808
- relative viability ([5]; first compound 1 µM): 1.03
- relative viability ([5]; first compound 3.162 µM): 0.905

Cell Line: H3255
- relative viability ([1]; first compound 0.1 µM): 0.86
- relative viability ([1]; first compound 1 µM): 0.925
- relative viability ([1]; first compound 3.162 µM): 0.999
- relative viability ([2]; first compound 0.1 µM): 0.469
- relative viability ([2]; first compound 1 µM): 0.45
- relative viability ([2]; first compound 3.162 µM): 0.437
- relative viability ([3]; first compound 0.02 µM): 0.781
- relative viability ([3]; first compound 0.06325 µM): 1.03
- relative viability ([3]; first compound 0.2 µM): 0.9
- relative viability ([3]; first compound 0.6325 µM): 0.777
- relative viability ([3]; first compound 2 µM): 0.984
- relative viability ([4]; first compound 0.1 µM): 0.498
- relative viability ([4]; first compound 1 µM): 0.538
- relative viability ([4]; first compound 3.162 µM): 0.55
- relative viability ([5]; first compound 0.1 µM): 0.271
- relative viability ([5]; first compound 1 µM): 0.195
- relative viability ([5]; first compound 3.162 µM): 0.234

Cell Line: NCI-H1437
- relative viability ([1]; first compound 0.1 µM): 1.14
- relative viability ([1]; first compound 1 µM): 1.12
- relative viability ([1]; first compound 3.162 µM): 1
- relative viability ([2]; first compound 0.1 µM): 0.406
- relative viability ([2]; first compound 1 µM): 0.459
- relative viability ([2]; first compound 3.162 µM): 0.37
- relative viability ([3]; first compound 0.02 µM): 1.11
- relative viability ([3]; first compound 0.06325 µM): 0.991
- relative viability ([3]; first compound 0.2 µM): 1.13
- relative viability ([3]; first compound 0.6325 µM): 1.12
- relative viability ([3]; first compound 2 µM): 1.05
- relative viability ([4]; first compound 0.1 µM): 1.05
- relative viability ([4]; first compound 1 µM): 1.13
- relative viability ([4]; first compound 3.162 µM): 1.02
- relative viability ([5]; first compound 0.1 µM): 0.728
- relative viability ([5]; first compound 1 µM): 0.78
- relative viability ([5]; first compound 3.162 µM): 0.85

Cell Line: LU99A
- relative viability ([1]; first compound 0.1 µM): 0.386
- relative viability ([1]; first compound 1 µM): 0.493
- relative viability ([1]; first compound 3.162 µM): 0.462
- relative viability ([2]; first compound 0.1 µM): 0.305
- relative viability ([2]; first compound 1 µM): 0.294
- relative viability ([2]; first compound 3.162 µM): 0.298
- relative viability ([3]; first compound 0.02 µM): 0.261
- relative viability ([3]; first compound 0.06325 µM): 0.249
- relative viability ([3]; first compound 0.2 µM): 0.229
- relative viability ([3]; first compound 0.6325 µM): 0.238
- relative viability ([3]; first compound 2 µM): 0.19
- relative viability ([4]; first compound 0.1 µM): 0.845
- relative viability ([4]; first compound 1 µM): 0.816
- relative viability ([4]; first compound 3.162 µM): 0.598
- relative viability ([5]; first compound 0.1 µM): 0.977
- relative viability ([5]; first compound 1 µM): 0.858
- relative viability ([5]; first compound 3.162 µM): 0.71

Cell Line: HCC-827
- relative viability ([1]; first compound 0.1 µM): 0.233
- relative viability ([1]; first compound 1 µM): 0.195
- relative viability ([1]; first compound 3.162 µM): 0.255
- relative viability ([2]; first compound 0.1 µM): 0.832
- relative viability ([2]; first compound 1 µM): 1.13
- relative viability ([2]; first compound 3.162 µM): 0.781
- relative viability ([3]; first compound 0.02 µM): 0.679
- relative viability ([3]; first compound 0.06325 µM): 0.852
- relative viability ([3]; first compound 0.2 µM): 0.59
- relative viability ([3]; first compound 0.6325 µM): 0.731
- relative viability ([3]; first compound 2 µM): 0.684
- relative viability ([4]; first compound 0.1 µM): 1.04
- relative viability ([4]; first compound 1 µM): 1.02
- relative viability ([4]; first compound 3.162 µM): 1.02
- relative viability ([5]; first compound 0.1 µM): 0.206
- relative viability ([5]; first compound 1 µM): 0.192
- relative viability ([5]; first compound 3.162 µM): 0.173
